Measured values as given in US6689938B2, “Method for treatment of insulin resistance in obesity and diabetes” (Oklajoma Medical Research Foundation, priority 2000, dated 2004).

Legend:
Format in all cases: in vivo, mouse
[1] = test system: POMC null mutants and wildtype littermates; assay: Corticosterone supplementation in drinking water, blood glucose levels; conditions: 25 μg per mL in drinking water for 3½ months, starting at 3 months of age; POMC null mutants and wildtype females
Method: (§1) In the experiment illustrated in FIG. 7, POMC null mutants and wildtype littermate females, 5 per group, received drinking water containing corticosterone (25 μg per mL) or nothing in addition for 3½ months, starting at 3 months of age. Blood glucose levels were determined before and after corticosterone supplementation.

[2] = test system: POMC null mutants and wildtype mice; assay: Insulin tolerance test after corticosterone supplementation
Method: In this experiment, illustrated in FIG. 6, food was taken away in the morning from 5 month old females, 5 per group. 6 hrs later, the mice were injected with insulin (Human insulin, 1 Unit/kg, i.p.). Blood was collected at times indicated and glucose measured using a Glucometer.
as §1

[3] = test system: POMC mutants and wildtype mice; assay: Insulin tolerance test after MSH or ACTH treatment; conditions: for glucoregulatory response / ability of POMC null mice: peripheral administration to POMC null mice
Method: In this experiment, illustrated in FIG. 9, glucose was measured in 4-6 month old female mice, wildtypes and POMC mutants, 5 mice per group. Mice were fasted for 5 hours. Each genotype (wildtype +/+and mutant −/−) received either: (1) 0.1 mL saline i.p.; (2) 0.1 mL saline containing 1 μg α-MSH i.p.; or (3) 0.1 mL saline containing 1 μg ACTH s.c.
One hour later, human insulin (0.5 mIU/g body weight) was injected intraperitoneally in all mice, and glucose was measured at the indicated intervals in blood collected from a tail nick.

| Compound | induction of diabetes (blood glucose levels before and after supplementation) [1] | counterregulatory response in insulin tolerance test ([2]; POMC mutants versus wildtype mice) | blood glucose levels in insulin tolerance test ([2]; both wildtypes and mutants, versus untreated group) | blood glucose levels in insulin tolerance test, treated POMC mutants versus wildtype littermates ([3]; 1 μg α-MSH i.p. one hour before human insulin 0.5 mIU/g i.p., 4-6 month old females fasted 5 hours) | insulin resistance in the POMC null mouse ([3]; administration to the POMC null mouse) | glucoregulatory response / ability of POMC null mice [3] | glucoregulatory response / ability of POMC null mice ([3]; listed as melanocortin stimulating hormone (MSH)) |
| --- | --- | --- | --- | --- | --- | --- | --- |
| C[C@]12C[C@H](O)[C@H]3[C@@H](CCC4=CC(=O)CC[C@@]43C)[C@@H]1CC[C@@H]2C(=O)CO [corticosterone] | does not induce diabetes | lag behind the wildtype mice in their counterregulatory response in the same manner as without corticosterone supplementation | do not fall to as low a level as in the untreated group |  |  |  |  |
| Ac-Ser-Tyr-Ser-Met-Glu-His-Phe-Arg-Trp-Gly-Lys-Pro-Val-NH2 [α-MSH] |  |  |  | not significantly different | induces insulin-resistance | restored the glucoregulatory ability | nearly normalizes the glucoregulatory response |
